Source: patent US11591326B2, “Inhibitors of protein arginine methyltransferase 5 (PRMT5), pharmaceutical products thereof, and methods thereof” (PHARMABLOCK SCIENCES (NANJING), INC., priority 2018, dated 2023)
Like-named read-outs stand apart in the source and are kept apart here.

How the values were obtained:
[1] = Pharmacokinetic study in dog; type: in vivo, male beagle dogs; conditions: male, beagle; for plasma clearance / Vd: 2 mg/kg, Dog PK (IV) 2 mpk; for plasma clearance: read-out: Clint (converted); for Vd / AUC(0-t) / Cmax / Tmax / bioavailability / half-life: plasma; for Vd: read-out: Vss; for AUC(0-t) / Cmax / Tmax / bioavailability / half-life: 10 mg/kg, Dog PK (PO) 10 mpk; for half-life: read-out: T½ (converted)
Method: None naïve male beagle dogs (8-10 kg; purchased from Beijing Marshall Biotechnology Co. LTD; n=18, with 3 per compound) were treated with a single dose of compounds being tested at 2 mg/kg by intravenous tail-vein injection and 10 mg/kg by oral gavage administration, with both doses formulated in 5% DMSO+45% PEG400 in water. Animals upon PO administration were fasted overnight and fed 4 hours after dosing. Animals upon IV administration were free access to food and water. The study was performed in accordance with the guidelines and standards of the Association for Assessment and Accreditation of Laboratory Animal Care (AAALAC International) and the National Institutes of Health.
The animal was restrained manually at the designated time points, and approximately 500 μL of each blood/time point was collected via cephalic vein and put on wet ice, then centrifuged at 2000 g for 5 min (4° C.) within 15 minutes post sampling. Plasma samples were stored at approximately −70° C. until analysis. An aliquot of 20 μL sample was added with 200 μL IS (Diclofenac, 100 ng/mL) in ACN. The mixture was vortexed for 10 min and centrifuged at 5800 rpm for 10 min. An aliquot of 1 μL supernatant was injected for LC-MS/MS analysis. For 10×-diluted sample, an aliquot of 2 μL sample was added with 18 μL blank plasma. The sample preparation procedure is same with no-diluted sample. Standard calibration curves were constructed by analyzing a series of control plasma aliquots containing Diclofenac (100 ng/mL) as an internal standard and 3-3,000 ng/mL testing compounds. Compound concentrations were determined with UPLC-MS/MS-22 (Triple Quad™ 6500).

Huh7 = experiment: Liver cancer panel proliferation inhibition, Huh7; type: cell-based; conditions: Homo sapiens
Method: (§1) Inhibitory ability of compounds synthesized on the proliferation of three panels of cancer cell lines, including 5 breast cancer, 6 liver cancer, and 3 lung cancer cell lines were evaluated. Exponentially growing cells were seeded in the media of choice at various cell densities in 384-well plates with 20 ul per well and incubated overnight at 37° C., 5% CO2 incubator. Compounds were prepared as 10-point, 3-fold serial dilutions in DMSO, beginning at 6 mM. 1 μl of DMSO solutions from the compound stock plates were added to 99 ul of cell media (final top concentration of compound in the assay was 30 uM and the final concentration of DMSO was 0.5%). 20 μL of compound solutions in media were added to each well of plates with cells seeded. After adding compound solutions, assay plates were incubated for 8 and 12 days, respectively, at 37° C., 5% CO2. During this incubation period, cell media was changed every 4 days. After removing old media from cell plates, 40 ul of media with testing compounds dissolved, which were prepared by adding 1 ul of compound DMSO serial solutions to 199 ul of cell media, were added to the assay plates with the same layout as they were initially prepared. After 8 or 12 days, cell viability was measured using the CellTiter-Glo assay kit from Promega (Madison, Wis., USA) by quantitating the ATP present in the cell cultures. 20 μL of CellTiter-Glo reagent was added to each well of the cell plates. Luminescence was read after 10 minute of incubation with the Envision multiple plate reader from PerkinElmer (Waltham, Mass., USA). The concentrations of compounds inhibiting cell viability by 50% (IC50 values) were determined using a sigmoidal dose-response model (variable slopes, four parameters) in Prism 7 (La Jolla, Calif., USA).

MCF-7 = experiment: Breast cancer panel proliferation inhibition, MCF-7; type: cell-based; conditions: Homo sapiens
Method: as §1

EBC-1 = experiment: Lung cancer panel proliferation inhibition, EBC-1; type: cell-based; conditions: Homo sapiens
Method: as §1

MDA-MB-453 = experiment: Breast cancer panel proliferation inhibition, MDA-MB-453; type: cell-based; conditions: Homo sapiens
Method: as §1

MDA-MB-468 = experiment: Breast cancer panel proliferation inhibition, MDA-MB-468; type: cell-based; conditions: Homo sapiens
Method: as §1

SNU398 = experiment: Liver cancer panel proliferation inhibition, SNU398; type: cell-based; conditions: Homo sapiens
Method: as §1

BT474 = experiment: Breast cancer panel proliferation inhibition, BT474; type: cell-based; conditions: Homo sapiens
Method: as §1

[2] = Huh-7, 192 h, Huh7, 8 days, read-out: IC50 (μM) 8 days
[3] = Huh-7, 288 h, Huh7, 12 days, read-out: IC50 (μM) 12 days
[4] = MCF7, 192 h, MCF-7, 8 days, read-out: IC50 (μM) 8 days
[5] = MCF7, 288 h, MCF-7, 12 days, read-out: IC50 (μM) 12 days
[6] = 192 h, EBC-1, 8 days, read-out: IC50 (μM) 8 days
[7] = 288 h, EBC-1, 12 days, read-out: IC50 (μM) 12 days
[8] = 192 h, MDA-MB-453, 8 days, read-out: IC50 (μM) 8 days
[9] = 288 h, MDA-MB-453, 12 days, read-out: IC50 (μM) 12 days
[10] = 192 h, MDA-MB-468, 8 days, read-out: IC50 (μM) 8 days
[11] = 288 h, MDA-MB-468, 12 days, read-out: IC50 (μM) 12 days
[12] = SNU-398, 192 h, SNU398, 8 days, read-out: IC50 (μM) 8 days
[13] = SNU-398, 288 h, SNU398, 12 days, read-out: IC50 (μM) 12 days
[14] = BT-474, 192 h, BT474, 8 days, read-out: IC50 (μM) 8 days
[15] = BT-474, 288 h, BT474, 12 days, read-out: IC50 (μM) 12 days

Row | plasma clearance [1] [mL/min/kg] | Vd [1] [L/kg] | AUC(0-t) [1] [ng·h/mL] | Cmax [1] [ng/mL] | Tmax [1] [h] | bioavailability [1] [%] | half-life [1] [h] | IC50 (Huh7; [2]) [µM] | IC50 (Huh7; [3]) [µM] | IC50 (MCF-7; [5]) [µM] | IC50 (EBC-1; [6]) [µM] | IC50 (EBC-1; [7]) [µM] | IC50 (MDA-MB-453; [8]) [µM] | IC50 (MDA-MB-453; [9]) [µM] | IC50 (MDA-MB-468; [10]) [µM] | IC50 (MDA-MB-468; [11]) [µM] | IC50 (SNU398; [12]) [µM] | IC50 (SNU398; [13]) [µM] | IC50 (BT474; [14]) [µM] | IC50 (BT474; [15]) [µM] | SMILES | also measured
1 | 5.17 | 1.56 ± 0.041 | 42100 ± 13200 | 5550 ± 1590 | 1.33 ± 0.577 | 133 ± 38.6 | 4.81 ± 1 | 0.26 | 0.092 | 0.021 | 0.028 | 0.031 | 0.14 | 0.06 | 0.022 | 0.0038 | 0.45 | 0.12 | 0.041 | 0.03 | CC(=O)N1CCC(Nc2ccc3c(c2)C(=O)N(C[C@H](O)CN2CCc4ccccc4C2)CCO3)CC1 [Compound 52a, (R)-7-((1-acetylpiperidin-4-yl)amino)-4-(3-(3,4-dihydroisoquinolin-2(1H)-yl)-2-hydroxypropyl)-3,4-dihydrobenzo[f][1,4]oxazepin-5(2H)-one] | IC50 (MCF-7; [4]): 0.025 µM
2 | 4.27 | 1.81 ± 0.13 | 35100 ± 7990 | 4440 ± 680 | 2 | 89.8 ± 20.5 | 3.76 ± 0.195 | 0.28 | 0.072 | 0.026 | 0.025 | 0.03 | 0.28 | 0.19 | 0.042 | 0.0041 | 0.54 | 0.25 | 0.11 | 0.057 | CC(=O)N1CCC(Nc2ccc3c(c2)C(=O)N(C[C@H](O)CN2CCc4ccccc4C2)CC3)CC1 [Compound 24a, (R)-7-((1-acetylpiperidin-4-yl)amino)-2-(3-(3,4-dihydroisoquinolin-2(1H)-yl)-2-hydroxypropyl)-3,4-dihydroisoquinolin-1(2H)-one] | IC50 (MCF-7; [4]): 0.016 µM
3 | 13.5 | 1.32 ± 0.144 | 13300 ± 3280 | 3000 ± 567 | 1.67 ± 0.577 | 105 ± 25.5 | 3.37 ± 0.64 | 0.23 | 0.073 | 0.029 | 0.062 | 0.057 | 1.22 | 0.16 | 0.044 | 0.0074 | 0.83 | 0.41 | 0.14 | 0.056 | CC(=O)N1CCC(Nc2cc(C(=O)NC[C@H](O)CN3CCc4ccccc4C3)ncn2)CC1 [Compound C3, reference compound] | –
